# From patent US11160796B2, “Anti-androgens for the treatment of non-metastatic castration-resistant prostate cancer” (priority 2017, dated 2021)
# “Also recorded” adds a separate entry of the source.
# What was measured:
# [1] = Single-dose and repeat-dose toxicology studies in male rats
# Description: Single-dose and repeat-dose toxicology studies up to 13 weeks of dosing have been conducted in male Sprague Dawley (SD) rats and male Beagle dogs (repeat-dose studies only).
# CYP2C8 [2] = biological target: T1, CYP2C8 (Homo sapiens, UniProt P10632); assay: Contribution of CYP2C8 in the metabolism of apalutamide; assay type: in vivo; conditions: estimated
# T1 construct: from tissue; host or cells: human subjects, in vivo (clinical pharmacology)
# T1 sequence (P10632 1-490): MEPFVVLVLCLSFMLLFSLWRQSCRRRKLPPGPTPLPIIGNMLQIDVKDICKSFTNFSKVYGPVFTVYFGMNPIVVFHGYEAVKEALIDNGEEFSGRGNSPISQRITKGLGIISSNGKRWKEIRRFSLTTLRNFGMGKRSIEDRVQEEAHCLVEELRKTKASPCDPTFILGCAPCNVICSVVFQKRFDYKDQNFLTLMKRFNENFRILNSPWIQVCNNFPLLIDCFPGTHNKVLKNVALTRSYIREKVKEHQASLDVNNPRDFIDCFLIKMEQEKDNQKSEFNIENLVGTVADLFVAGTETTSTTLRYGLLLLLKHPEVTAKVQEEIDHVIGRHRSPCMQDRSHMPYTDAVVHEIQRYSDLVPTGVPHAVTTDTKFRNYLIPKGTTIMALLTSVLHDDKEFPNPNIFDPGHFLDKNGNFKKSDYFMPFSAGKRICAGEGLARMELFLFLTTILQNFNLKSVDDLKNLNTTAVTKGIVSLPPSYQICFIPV
# [3] = biological target: T2, organic anion transporter 1 (OAT1) (Homo sapiens, UniProt Q4U2R8); assay: In vitro transporter inhibition: OAT1
# T2 sequence (Q4U2R8 1-563): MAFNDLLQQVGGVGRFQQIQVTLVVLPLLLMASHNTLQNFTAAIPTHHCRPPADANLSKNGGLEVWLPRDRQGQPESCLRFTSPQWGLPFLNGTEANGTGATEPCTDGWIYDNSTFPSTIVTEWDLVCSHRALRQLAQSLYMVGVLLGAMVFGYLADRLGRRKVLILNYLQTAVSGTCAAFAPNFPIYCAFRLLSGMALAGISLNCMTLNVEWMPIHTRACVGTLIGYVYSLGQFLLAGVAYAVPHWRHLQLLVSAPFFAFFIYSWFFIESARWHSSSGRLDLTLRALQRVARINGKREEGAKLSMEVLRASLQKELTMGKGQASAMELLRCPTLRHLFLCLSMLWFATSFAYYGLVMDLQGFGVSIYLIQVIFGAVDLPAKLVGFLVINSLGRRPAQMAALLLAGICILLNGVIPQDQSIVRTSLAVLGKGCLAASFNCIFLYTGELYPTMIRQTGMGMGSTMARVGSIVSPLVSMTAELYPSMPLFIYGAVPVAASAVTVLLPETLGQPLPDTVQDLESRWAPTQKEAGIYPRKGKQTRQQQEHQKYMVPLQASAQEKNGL
# human CYP2B6 and CYP3A4 = conditions: hepatocytes
# P-gp = P-gp (Homo sapiens, UniProt P08183); assay: In vitro transporter substrate assessment: P-gp
# Chain of P-gp (P08183 whole entry): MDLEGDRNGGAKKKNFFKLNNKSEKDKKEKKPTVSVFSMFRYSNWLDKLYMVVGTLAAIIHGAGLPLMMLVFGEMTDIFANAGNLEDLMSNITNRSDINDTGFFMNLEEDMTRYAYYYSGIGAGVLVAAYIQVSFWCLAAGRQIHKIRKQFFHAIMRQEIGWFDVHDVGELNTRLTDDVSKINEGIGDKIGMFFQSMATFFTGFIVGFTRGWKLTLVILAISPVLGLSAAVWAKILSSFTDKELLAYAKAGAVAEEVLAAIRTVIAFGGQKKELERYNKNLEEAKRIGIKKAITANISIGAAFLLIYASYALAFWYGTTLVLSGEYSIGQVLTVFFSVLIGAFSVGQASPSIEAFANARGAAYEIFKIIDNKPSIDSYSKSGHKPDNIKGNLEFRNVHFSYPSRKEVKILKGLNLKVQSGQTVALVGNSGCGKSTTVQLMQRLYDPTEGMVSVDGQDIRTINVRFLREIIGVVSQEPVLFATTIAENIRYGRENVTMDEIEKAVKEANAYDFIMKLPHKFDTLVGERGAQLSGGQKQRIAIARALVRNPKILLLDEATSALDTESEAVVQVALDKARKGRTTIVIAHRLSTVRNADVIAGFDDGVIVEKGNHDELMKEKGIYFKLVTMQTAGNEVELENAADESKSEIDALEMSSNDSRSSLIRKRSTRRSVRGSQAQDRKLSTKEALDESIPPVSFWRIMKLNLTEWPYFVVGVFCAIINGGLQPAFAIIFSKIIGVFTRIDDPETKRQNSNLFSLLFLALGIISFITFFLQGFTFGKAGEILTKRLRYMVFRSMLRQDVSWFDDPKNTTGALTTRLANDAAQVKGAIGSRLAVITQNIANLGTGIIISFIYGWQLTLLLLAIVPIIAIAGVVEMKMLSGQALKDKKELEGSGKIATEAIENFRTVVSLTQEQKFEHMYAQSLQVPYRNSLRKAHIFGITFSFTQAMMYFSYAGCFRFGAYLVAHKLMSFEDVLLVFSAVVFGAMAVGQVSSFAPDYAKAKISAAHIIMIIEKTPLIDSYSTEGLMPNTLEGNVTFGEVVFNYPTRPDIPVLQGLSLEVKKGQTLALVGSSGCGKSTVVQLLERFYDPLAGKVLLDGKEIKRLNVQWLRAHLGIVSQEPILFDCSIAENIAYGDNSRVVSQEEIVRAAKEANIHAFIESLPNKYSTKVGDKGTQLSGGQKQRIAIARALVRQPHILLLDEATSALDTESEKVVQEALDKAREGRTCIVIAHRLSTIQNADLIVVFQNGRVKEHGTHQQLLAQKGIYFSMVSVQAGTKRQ
# CYP2B6 and CYP2C8 = assay: In vitro CYP inhibition: CYP2B6 and CYP2C8
# [4] = Single oral administration of 14C-labeled apalutamide 240 mg (metabolite profile, excretion)
# [5] = system: BCRP, OATP1B1, and OATP1B3; conditions: not told
# CYP1A2 and CYP2D6 = assay: In vitro effect on CYP1A2 and CYP2D6; conditions: therapeutically relevant concentrations
# [6] = system: organic cation transporter 2 (OCT2), organic anion transporter 3 (OAT3) and multidrug and toxin extrusions (MATEs); assay: In vitro transporter inhibition: OCT2, OAT3, MATEs; assay type: in vitro ADME
# [7] = system: castration-resistant prostate cancer (CRPC); assay: Phase II clinical trial of apalutamide 240 mg daily in CRPC; assay type: in vivo, human; conditions: for 12-week PSA declines of >50% or more from baseline (% of patients): preliminary
# Description: The primary objective was to assess antitumor activity and PSA kinetics as defined by the Prostate Cancer Clinical Trials Working Group (PCWG2) criteria. […] The median time to PSA progression was not reached for the TN cohort during the preliminary 12-week period, and was 16 weeks in the PA cohort.
# The median time to PSA progression was not reached in this observed time period.
# LNCaP/AR cells = assay: In vitro model of CRPC (AR-over-expressing prostate cancer cells); assay type: cell-based
# CYP2C8 [8] = biological target: T1, CYP2C8; assay: Drug-drug interaction study, cocktail approach: CYP2C8 substrate; conditions: in vivo
# Plasma protein binding = conditions: plasma
compound,measurement,setting,value
"CNC(=O)c1ccc(N2C(=S)N(c3cnc(C#N)c(C(F)(F)F)c3)C(=O)C23CCC3)cc1F [apalutamide, 4-[7-(6-cyano-5-trifluoromethylpyridin-3-yl)-8-oxo-6-thioxo-5,7-diazaspiro[3.4]oct-5-yl]-2-fluoro-N-methylbenzamide]",well tolerated dose,"[1]; 13-weeks study, once daily oral gavage, male SD rats",up to 100 mg/kg/day
same,"dose with reproductive system findings (atrophy, aspermia/hypospermia, degeneration, hyperplasia or hypertrophy)","[1]; male, Sprague Dawley, rat, in vivo",> 25 mg/kg/day
same,NOAEL at 13 weeks,"[1]; male, Sprague-Dawley, rat, in vivo",100 mg/kg/day
same,increase in cholesterol from controls,"[1]; rat, in vivo, 150 mg/kg/day",greater than 200%
same,contribution of CYP2C8 in the metabolism,CYP2C8 [2]; at steady-state,40%
same,contribution of CYP2C8 in the metabolism,CYP2C8 [2]; following single dose,58%
same,inhibition of OAT1,[3],No in vitro inhibition; also recorded: do not inhibit
same,CYP3A4 and CYP2B6 induction,human CYP2B6 and CYP3A4,moderate to strong CYP3A4 and CYP2B6 inducers
same,substrate for P-gp,P-gp,substrates for P-gp
same,inhibition of CYP2B6 and CYP2C8,CYP2B6 and CYP2C8,moderate inhibitors
same,share of the total 14C-AUC in plasma,[4]; single oral 240 mg,45%
same,% of dose in feces as this compound,[4]; up to 70 days,1.5%
same,% of dose in urine as this compound,[4]; up to 70 days,1.2%
same,radioactivity recovered in feces,[4]; up to 70 days,24%
same,radioactivity recovered in urine,[4]; up to 70 days,65%
same,radioactivity recovered,[4]; up to 70 days post-dose,89%
same,"substrate for BCRP, OATP1B1, and OATP1B3",[5],"not BCRP, OATP1B1, and OATP1B3"
same,effect on CYP1A2 and CYP2D6,CYP1A2 and CYP2D6,do not affect
same,"inhibition of OCT2, OAT3 and MATEs",[6],cannot be excluded; also recorded: inhibit
same,median time to PSA progression,[7]; PA cohort,16 weeks
same,12-week PSA declines of >50% or more from baseline (% of patients),"[7]; PA cohort (progressed after abiraterone acetate plus prednisone), 240 mg oral daily",29%
same,12-week PSA declines of >50% or more from baseline (% of patients),"[7]; TN cohort (treatment-naive metastatic CRPC), 240 mg oral daily",88%
same,median time to PSA progression,"[7]; TN cohort, preliminary 12-week period",not reached
same,objective response rate (by RECIST),[7]; TN patients with measurable disease at baseline,63%
same,patients with >50% decline in PSA as compared to baseline,"[7]; non-metastatic CRPC, 240 mg oral daily, 12 weeks",91%
same,patients with >50% decline in PSA,"[7]; non-metastatic CRPC, 24 weeks",91%
same,patients with >90% decline in PSA,"[7]; non-metastatic CRPC, 24 weeks",55%
same,median time to PSA progression,"[7]; non-metastatic CRPC, observed time period",not reached
same,"genotoxicity, in vivo rat Comet assay",In vivo rat Comet assay,not genotoxic
same,agonist properties in an in vitro model of CRPC,LNCaP/AR cells; LNCaP/AR cells,no significant agonist properties
same,"Gene transcription of the androgen-driven genes, PSA and TMPRSS2",LNCaP/AR cells; in vitro,inhibited
same,changes in exposure to the CYP2C8 substrate,CYP2C8 [8],did not cause clinically meaningful changes
same,fraction unbound,Plasma protein binding,0.04
